Target: T1, SRC N1 (Homo sapiens, UniProt P12931)
T1 construct: purchased Thermo Fisher Scientific (Life Technologies) SelectScreen
Experiment: SelectScreen Z'LYTE
Format: biochemical
Summary of the method: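 NU5455 was profiled across the SelectScreen Broad panel of kinase activity and binding assays. Z'LYTE reactions such as CSF1R ran at apparent Km ATP, while the Adapta CAMK1 assay used ATP listed as 10. Values are given as percent.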

T1 sequence (P12931 1-542 isoform P12931-2): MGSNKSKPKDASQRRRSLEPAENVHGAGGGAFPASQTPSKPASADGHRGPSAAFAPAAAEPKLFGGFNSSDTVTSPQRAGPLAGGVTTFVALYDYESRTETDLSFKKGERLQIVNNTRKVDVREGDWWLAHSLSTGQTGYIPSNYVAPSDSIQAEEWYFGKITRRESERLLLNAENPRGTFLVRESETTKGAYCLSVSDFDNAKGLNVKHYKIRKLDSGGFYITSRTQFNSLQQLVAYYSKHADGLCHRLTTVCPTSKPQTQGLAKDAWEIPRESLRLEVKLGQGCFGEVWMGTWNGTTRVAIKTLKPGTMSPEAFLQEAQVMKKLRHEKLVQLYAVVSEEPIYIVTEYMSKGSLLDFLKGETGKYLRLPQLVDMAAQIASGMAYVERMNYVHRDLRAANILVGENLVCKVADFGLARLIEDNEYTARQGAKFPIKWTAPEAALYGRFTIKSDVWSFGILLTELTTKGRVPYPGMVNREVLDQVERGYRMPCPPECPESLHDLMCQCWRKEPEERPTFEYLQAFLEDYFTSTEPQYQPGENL

## CN(C(=O)CN1CCOCC1)c1ccc2sc3c(-c4cccc5c(=O)cc(N6CC7CCC(C6)O7)oc45)cccc3c2c1 [NU5455]
  inhibition at 1 µM: 3.9%
